Measured values taken from patent US20250340560A1, “SUBSTITUTED PYRAZOLO[1,5-a]PYRIMIDINES AS BRUTON'S TYROSINE KINASE MODULATORS” (BEIGENE SWITZERLAND GMBH, priority 2013, published 2025).

These molecules were tested against phosphorylated Btk at Tyr223 in Ramos cells (Homo sapiens (Human), UniProt Q06187) (assay: BTK pY223 cellular assay (HTRF) in Ramos cells). Details: 1 hour compound incubation, pervanadate or Na3VO4 stimulation.
Format: cell-based
Method: Btk pY223 cellular assay is a HTRF based assay intended to determine the endogenous levels of phosphorylated Btk at Tyr223.
Briefly, Ramos cells were serum starved in 0.5% FBS-containing RPMI1640 for 2 hours. Following starvation, the cells were incubated with compounds to be detected at various concentrations in a CO2 incubator for 1 hour. After incubation, cells were stimulated with 1 mM pervanadate (PV) or Na3VO4 (OV) for 20 min. Then, the cells were spinned down and lysed with 1× lysis buffer at RT for 10 min (4× lysis buffer supplied in the kit). During the incubation, 1× antibody mix was prepared by diluting anti-Btk-d2 and anti-pBtk-K in detection buffer (supplied in the kit). […] After that, 18 ul of cell lysate was transferred to the assay plate pre-loaded with antibody solution. After mixing gently and spinning briefly, the plate was sealed up and kept in dark at RT for 18 hours. […] IC50 values were calculated with GraphPad Prism software using the sigmoidal dose-response function.

Sequence of phosphorylated Btk at Tyr223 in Ramos cells (Q06187 whole entry): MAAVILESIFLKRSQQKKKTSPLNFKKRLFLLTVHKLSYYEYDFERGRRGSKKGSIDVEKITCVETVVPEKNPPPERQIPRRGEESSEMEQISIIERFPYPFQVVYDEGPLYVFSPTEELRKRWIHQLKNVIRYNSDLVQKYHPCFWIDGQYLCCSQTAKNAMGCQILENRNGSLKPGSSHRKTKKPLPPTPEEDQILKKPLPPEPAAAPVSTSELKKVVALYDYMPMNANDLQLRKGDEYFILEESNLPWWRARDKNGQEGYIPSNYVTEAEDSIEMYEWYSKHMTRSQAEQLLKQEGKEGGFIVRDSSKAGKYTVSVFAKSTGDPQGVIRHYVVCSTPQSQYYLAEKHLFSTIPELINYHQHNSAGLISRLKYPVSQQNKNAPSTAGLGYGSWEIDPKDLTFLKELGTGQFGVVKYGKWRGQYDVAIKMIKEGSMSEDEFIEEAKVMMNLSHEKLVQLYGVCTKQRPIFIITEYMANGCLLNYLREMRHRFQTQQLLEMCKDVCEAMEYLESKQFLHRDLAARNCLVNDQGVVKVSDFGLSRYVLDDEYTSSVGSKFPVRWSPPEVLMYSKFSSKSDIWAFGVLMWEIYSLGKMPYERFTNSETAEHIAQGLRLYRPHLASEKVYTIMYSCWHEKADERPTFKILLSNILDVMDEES

SMILES | IC50
C=CC(=O)N1CC[C@@H]2C(CNc3c(C(N)=O)c(-c4ccc(Oc5ccccc5)cc4)nn32)C1 (single isomer, unassigned) [Compound 30a] | 5.6 nM
C=CC(=O)Nc1ccccc1C1CCNc2c(C(N)=O)c(-c3ccc(OCc4ccccc4)cc3)nn21 (single isomer, unassigned) [Compound 10a] | 2.2 nM

Each molecule was assayed against Recombinant Btk (Homo sapiens (Human), UniProt Q06187) (assay: BTK kinase assay (TR-FRET)). Details: IC50 (nM) Btk, 1 hour pre-incubation, ATP at Km.
Sequence of Recombinant Btk (Q06187 whole entry): as above

SMILES | IC50
C=CC(=O)Nc1ccccc1C1CCNc2c(C(N)=O)c(-c3ccc(OCc4ccccc4)cc3)nn21 (single isomer, unassigned) [Compound 10a] | 0.51 nM

Same assay, conditions: read-out: IC50 (nM) Btk; 1 hour pre-incubation, ATP at Km

SMILES | IC50
C=CC(=O)N1CC[C@@H]2C(CNc3c(C(N)=O)c(-c4ccc(Oc5ccccc5)cc4)nn32)C1 (single isomer, unassigned) [Compound 30a] | 0.66 nM
CCCC#CC(=O)N1CCC([C@@H]2CCNc3c(C(N)=O)c(-c4ccc(Oc5ccccc5)cc4)nn32)CC1 [Compound 193, (S)-7-(1-(Hex-2-ynoyl)piperidin-4-yl)-2-(4-phenoxyphenyl)-4,5,6,7-tetrahydropyrazolo[1,5-a]pyrimidine-3-carboxamide] | 3.9 nM
NC(=O)c1c(-c2ccc(Oc3ccccc3)cc2)nn2c1[nH]c1cccc(N)c12 [Compound 131, 8-amino-2-(4-phenoxyphenyl)-4H-benzo[4,5]imidazo[1,2-b]pyrazole-3-carboxamide] | 170 nM
C=CC(=O)Nc1ccccc1C1CCNc2c(C(N)=O)c(-c3cc(F)c(F)c(Cl)c3)nn21 (stereo not shown) [Compound 158, 7-(2-Acrylamidophenyl)-2-(3-chloro-4.5-difluorophenyl)-4,5,6,7-tetrahydropyrazolo[1,5-a]pyrimidine-3-carboxamide] | 2.9 nM
CN(C)CCOc1cccc(C2CNc3c(C(N)=O)c(-c4ccc(Oc5ccccc5)cc4)nn3C2)c1 (stereo not shown) [Compound 91, 6-(3-(2-(Dimethylamino)ethoxy)phenyl)-2-(4-phenoxyphenyl)-4,5,6,7-tetrahydropyrazolo[1,5-a]pyrimidine-3-carboxamide] | 1900 nM
C=CC(=O)N1CC2(CCNc3c(C(N)=O)c(-c4ccc(Oc5ccccc5)cc4)nn32)C1 [Compound 119, 1-acryloyl-2′-(4-phenoxyphenyl)-5′,6′-dihydro-4′H-spiro[azetidine-3,7′-pyrazolo[1,5-a]pyrimidine]-3′-carboxamide] | 40 nM
NC(=O)c1c(-c2ccc(Oc3ccccc3)cc2)nn2c3c([nH]c12)CCNCC3 [Compound 120] | 180 nM
NC(=O)c1c(-c2ccc(Oc3ccccc3)cc2)nn2c1NC(=O)C21CCNCC1 [Compound 82, 2-Oxo-6-(4-phenoxyphenyl)-1,2-dihydrospiro[imidazo[1,2-b]pyrazole-3,4′-piperidine]-7-carboxamide] | 3100 nM
C=CC(=O)N1CCC2(CCNc3c(C(N)=O)c(-c4ccc(Oc5ccccc5)cc4)nn32)CC1 [Compound 43, 1-Acryloyl-2′-(4-phenoxyphenyl)-5′,6′-dihydro-4′H-spiro[piperidine-4,7′-pyrazolo[1,5-a]pyrimidine]-3′-carboxamide] | 3 nM
C=CC(=O)N(C)CC1CCNc2c(C(N)=O)c(-c3ccc(Oc4ccccc4)cc3)nn21 (stereo not shown) [Compound 35] | 1.1 nM
